Laboratory results from patent publication US20250144250A1, “PH-SENSITIVE FLUOROPHORES” (The General Hospital Corporation, priority 2022, published 2025).

Key:
[1] = test system: peritoneal dissemination of ID8 ovarian cancer; experiment: Preclinical intraoperative fluorescence-guided surgery; assay type: in vivo, mice; details: FGS 4 h post-injection, 20 nmol
Description: Preclinical intraoperative fluorescence-guided surgery: We performed preclinical fluorescence-guided surgery (FGS) in mice with peritoneal dissemination of ID8 ovarian cancer using the FLARE imaging system. We injected 20 nmol of PH08 in 100 μL of 5% wt/v BSA/saline into the mouse intraperitoneally 4 h prior to the surgery. The abdominal cavity was opened with a midline incision under isoflurane inhalational anesthesia. The entire abdominal cavity was examined carefully by a surgeon using color and fluorescent imaging on the FLARE imaging system. Peritoneal dissemination was resected under white light assisted with the color and fluorescent images.
Evaluation of in vivo efficacy of NIR fluorophores for fluorescence-guided surgery (FGS): Having confirmed the pH sensitivity and tumor cell uptake of PH08 in vitro, we next evaluated the in vivo performance of the pH sensing NIR fluorophores in a mouse model of ovarian cancer. […] In this model, approximately 12 week post-peritoneal injection of ID8 cells, numerous nodules were observed on the peritoneum. These small nodules (<1 mm) are extremely difficult to localize and visualize in the surgical field. Thus, this model was suitable to test the performance of this fluorophore. […] The signal of PH08 allowed for clear visualization of the lesions that measured 5 mm or less than 1 mm in diameter. […]

[2] = test system: ID8 ovarian cancer tumor tissue; experiment: Histological analysis of tumor-targetability of the NIR fluorophore; assay type: in vivo, mice; details: frozen sections, 4 h post-injection of 20 nmol
Description: Histological analysis of tumor-targetability of the NIR fluorophore: To determine the tissue distribution of the NIR fluorophore, tumors and major organs were removed from ID8 ovarian cancer-bearing mice 4 h post-injection with 20 nmol of PH08 in 100 μL of 5% wt/v BSA/saline. The dissected tissues were trimmed and embedded in Tissue-Tek optimum cutting temperature (OCT) compound (Sakura Finetek, Torrance, CA) without a pre-fixation step, and the tissue block was frozen at −80° C. Ten-μm thick frozen sections were cut by a cryostat (Leica, Germany). The slides were subject to fluorescence analysis first, then stained for hematoxylin and eosin (H&E). Fluorescence and brightfield images were acquired on the 4-channel Nikon TE2000 epifluorescence microscope. Image acquisition and analysis were performed using IPLab software (Scanalytics, Fairfax, VA). […] Exposure times were adjusted to obtain a similar maximum fluorescence value for each fluorescence image. […] In order to validate the tumor-specific fluorescence signal, frozen sections including both tumor and adjacent normal tissues harvested from tumor-bearing mice were examined by fluorescence microscopy. […] The fluorescence signal was mostly seen on the top 3-4 layers of cells in the tumor tissue, of which the signal was found predominantly in the extracellular space and cytoplasm.

For `CCN1/C(=C/C=C2\CCCC(/C=C/C3=[N+](CC)c4ccccc4C3(C)C)=C2N2CCNCC2)C(C)(C)c2ccccc21` [PH08], the “outcome of FGS” value [1] was “complete resection of metastatic nodules” and the “fluorescence signal in tissue sections” value [2] was “detected throughout the tumor tissue with no substantial fluorescence signals in neighboring muscles”.
